# Test system: Aβ formation in human astroglioma cells (U 373) transfected with human APP751 (U373-K10)
# Experiment: Inhibition of Aβ formation in medium of APP751-overexpressing U373-K10 cells (ELISA)
# Format: cell-based
# Details: U373 MG
# From the text: The compounds according to the invention are characterized in that they inhibit the process of the formation of Aβ or its release from cells. This property was investigated according to the test described below.
# The inhibition of Aβ formation was investigated in the medium of a cell line overexpressing APP751. For this purpose, human astroglioma cells (U 373, ATCC) were stably transfected with the gene for human APP751 under the control of a CMV promoter (vector pRC-CMV). A clone with a high APP751 expression (U373-K10) was selected. In order to carry out the assay the cells are plated out in 96-well plates (Falcon) in Dulbecco's-Minimal-Essential medium (DMEM, Bio-Whittaker) with 10% FCS and cultivated to confluence at 37° C./5% CO2.
# The substances to be tested are first dissolved in 100% DMSO and then diluted to the test concentration in culture medium, so that the DMSO concentration of the test solution is always below 0.5%.
# 150 μl of the test solution are added per well to a confluent culture plate which has previously been washed once with DMEM, and pre-incubated for about 16 hours. This solution is replaced by 150 μl of fresh test solution after 1 wash and incubated again for 4 hours.
# 100 μl of this four-hour supernatant are transferred to an ELISA plate (Nunc) coated with the antibody 6E10 (specific for Aβ1-16, Senetek), and incubated overnight at 4° C. The Aβ is determined the next day by means of the alkaline phosphatase-conjugated antibody 6B10, which is specific for Aβ32-40.
row,SMILES,IC50 [µM]
1,"O=c1[nH]c2ccccc2n1C1CCN(CCCc2c(-c3ccccc3)nc3ccccn23)CC1 [Example 12, 1-{1-[3-(2-phenylimidazo[1,2-a]pyridin-3-yl)propyl]piperidin-4-yl}-1,3-dihydrobenzimidazol-2-one]",12
2,"O=c1[nH]c2ccccc2n1C1CCN(CCCc2c(-c3ccc(Cl)cc3)nc3ccccn23)CC1 [Example 13, 1-{1-[3-(2-p-chlorophenylimidazo[1,2-a]pyridin-3-yl)propyl]piperidin-4-yl}-1,3-dihydrobenzimidazol-2-one]",15
3,O=C(/C=C/c1c(-c2ccccc2)nc2ccccn12)N1CCC(n2c(=O)[nH]c3ccccc32)CC1 [Example 21],20

# The next lines start with the values.
row,IC50 [µM],SMILES
1,30,"Clc1ccc(-c2nc3ccccn3c2CCCN2CCN(Cc3ccccc3)CC2)cc1 [Example 14, 3-[3-(4-benzylpiperazin-1-yl)propyl]-2-(4-chlorophenyl)imidazo[1,2-a]pyridine]"
2,35,"Clc1ccc(CN2CCN(CCCc3c(-c4ccc(Cl)cc4)nc4ccccn34)CC2)cc1 [Example 20, 3-{3-[4-(4-chlorobenzyl)piperazin-1-yl]propyl}-2-(4-chlorophenyl)imidazo[1,2-a]pyridine]"
